Laboratory results: US8362067B2, “3-aminoalkyl-1,3-dihydro-2H-indol-2-one derivatives, preparation thereof and therapeutic use thereof” (Sanofi, priority 2008, dated 2013)
Counter-ions that a name gives are not always drawn.

Row | SMILES | melting point
1 | CCOc1ccc(S(=O)(=O)N2C(=O)C(CCCN3CCC(O)CC3)(c3ccccc3F)c3cc(Cl)c(OC)cc32)cc1OC (centres unmarked) | 102 °C
2 | CCOc1ccc(S(=O)(=O)N2C(=O)C(CCCN3CCOCC3)(c3ccccc3F)c3cc(Cl)c(OC)cc32)cc1OC (centres unmarked) | 153 °C
3 | CCN(CC)C(=O)Nc1ccc(S(=O)(=O)N2C(=O)C(CCCN(C)C)(c3ccccc3F)c3cc(C)c(OC)cc32)cc1C (centres unmarked) | 98 °C
4 | CCN(CC)C(=O)Nc1ccc(S(=O)(=O)N2C(=O)C(CCCN(C)C)(c3ccccc3F)c3cc(C)c(OC)cc32)cc1F (centres unmarked) | 82 °C
5 | COc1ccc(S(=O)(=O)N2C(=O)C(CCCN3CCCCC3)(c3ccccc3F)c3cc(Cl)c(OC)cc32)c(OC)c1 (centres unmarked) | 105 °C
6 | COc1cc2c(cc1Cl)C(CCCCCN(C)C)(c1ccccc1F)C(=O)N2S(=O)(=O)c1ccc(OC(C)C)cc1 (centres unmarked) (as salt: HCl) | 125 °C
7 | CCOc1ccc(S(=O)(=O)N2C(=O)C(CCCN3CC[C@@H](N)C3)(c3ccccc3F)c3cc(Cl)c(OC)cc32)cc1OC (stereo partly drawn) (as salt: HCl) [Compound No. 6, 3-{3-[(3R)-3-aminopyrrolidin-1-yl]propyl}-5-chloro-1-[(4-ethoxy-3-methoxy-phenyl)sulfonyl]-3-(2-fluorophenyl)-6-methoxy-1,3-dihydro-2H-indol-2-one] | 210 °C
8 | CCOc1ccc(S(=O)(=O)N2C(=O)C(CCCN3CC[C@H](N)C3)(c3ccccc3F)c3cc(Cl)c(OC)cc32)cc1OC (stereo partly drawn) (as salt: HCl) [Compound No. 7, 3-{3-[(3S)-3-aminopyrrolidin-1-yl]propyl}-5-chloro-1-[(4-ethoxy-3-methoxy-phenyl)sulfonyl]-3-(2-fluorophenyl)-6-methoxy-1,3-dihydro-2H-indol-2-one] | 238 °C
9 | COc1ccc(S(=O)(=O)N2C(=O)C(CCCN3CCNCC3)(c3ccccc3F)c3cc(Cl)c(OC)cc32)c(OC)c1 (centres unmarked) (as salt: HCl) [compound 16, 5-chloro-1-[(2,4-dimethoxyphenyl)sulfonyl]-3-(2-fluorophenyl)-6-methoxy-3-(3-(piperazin-1-yl)propyl)-1,3-dihydro-2H-indol-2-one] | 243 °C
10 | CCOc1ccc(S(=O)(=O)N2C(=O)C(CCCN3CCNCC3)(c3ccccc3F)c3cc(Cl)c(OC)cc32)cc1OC (centres unmarked) (as salt: HCl) [compound 18, 5-chloro-1-[(4-ethoxy-3-methoxyphenyl)sulfonyl]-3-(2-fluorophenyl)-6-methoxy-3-(3-(piperazin-1-yl)propyl)-1,3-dihydro-2H-indol-2-one] | 220 °C
11 | COc1cc2c(cc1Cl)C(CCCN1CCNCC1)(c1ccccc1F)C(=O)N2S(=O)(=O)c1ccc(OC)c(OC)c1 (centres unmarked) (as salt: HCl) [compound 19, 5-chloro-1-[(3,4-dimethoxyphenyl)sulfonyl]-3-(2-fluorophenyl)-6-methoxy-3-(3-(piperazin-1-yl)propyl)-1,3-dihydro-2H-indol-2-one] | 190 °C
12 | COc1ccc(S(=O)(=O)N2C(=O)C(CCCN3CCNCC3)(c3ccccc3F)c3cc(Cl)c(OC)cc32)cc1C (centres unmarked) (as salt: HCl) [compound 21, 5-chloro-3-(2-fluorophenyl)-6-methoxy-1-[(4-methoxy-3-methylphenyl)sulfonyl]-3-(3-(piperazin-1-yl)propyl)-1,3-dihydro-2H-indol-2-one] | 234 °C
13 | CCOc1ccc(S(=O)(=O)N2C(=O)C(CCCN3CCNCC3)(c3ccccc3F)c3cc(Cl)c(OC)cc32)cc1C (centres unmarked) (as salt: HCl) [compound 23, 5-chloro-1-[(4-ethoxy-3-methylphenyl)sulfonyl]-3-(2-fluorophenyl)-6-methoxy-3-(3-(piperazin-1-yl)propyl)-1,3-dihydro-2H-indol-2-one] | 226 °C

Second part, the compound after the results:

Row | melting point | SMILES
14 | 70 °C | COc1cc2c(cc1C)C(CCCN1CCN(C)CC1)(c1ccccc1F)C(=O)N2S(=O)(=O)c1ccc(OC(C)C)cc1 (centres unmarked)
15 | 72 °C | COc1cc2c(cc1F)C(CCCN1CCN(C)CC1)(c1ccccc1F)C(=O)N2S(=O)(=O)c1ccc(OC(C)C)cc1 (centres unmarked)
16 | 123 °C | COc1ccc(S(=O)(=O)N2C(=O)C(CCCN3CCN(C)CC3)(c3ccccc3F)c3cc(Cl)c(OC)cc32)c(OC)c1 (centres unmarked)
17 | 74 °C | COc1cc2c(cc1OC)C(CCCN1CCN(C)CC1)(c1ccccc1F)C(=O)N2S(=O)(=O)c1ccc(OC(C)C)c(F)c1 (centres unmarked)
18 | 72 °C | COc1cc2c(cc1F)C(CCCN1CCN(C)CC1)(c1ccccc1F)C(=O)N2S(=O)(=O)c1ccc(OC(C)C)c(F)c1 (centres unmarked)
19 | 78 °C | COc1ccc(S(=O)(=O)N2C(=O)C(CCCN3CCN(C)CC3)(c3ccccc3F)c3cc(OC)c(OC)cc32)cc1C (centres unmarked)
20 | 100 °C | COC(=O)c1ccc(F)c(C2(CCCN3CCN(C)CC3)C(=O)N(S(=O)(=O)c3ccc(OC(C)C)cc3)c3cc(OC)c(Cl)cc32)c1 (centres unmarked)
21 | 97 °C | COc1cc2c(cc1Cl)C(CCCN1CCN(C)CC1)(c1cc(CO)ccc1F)C(=O)N2S(=O)(=O)c1ccc(OC(C)C)cc1 (centres unmarked)
22 | 90 °C | COc1cc2c(cc1Cl)C(CCCN1CCN(C)CC1)(c1ccccc1F)C(=O)N2S(=O)(=O)c1ccc(OC)c(OC)c1 (centres unmarked)
23 | 169 °C | COc1cc2c(cc1Cl)C(CCCN1CCN(C)CC1)(c1ccccc1F)C(=O)N2S(=O)(=O)c1ccc(O)cc1 (centres unmarked)
24 | 164 °C | COc1cc2c(cc1Cl)C(CCCN1CCN(C)CC1)(c1ccccc1F)C(=O)N2S(=O)(=O)c1ccc(OC(F)(F)C(F)F)cc1.Cl (centres unmarked)
25 | 156 °C | CCCCOc1ccc(S(=O)(=O)N2C(=O)C(CCCN3CCN(C)CC3)(c3ccccc3F)c3cc(Cl)c(OC)cc32)cc1 (centres unmarked) (as salt: HCl)
26 | 202 °C | COc1cc2c(cc1Cl)C(CCCN1CCCN(C)CC1)(c1ccccc1F)C(=O)N2S(=O)(=O)c1ccc(OC(C)C)cc1 (centres unmarked) (as salt: HCl)
27 | 203 °C | COc1cc2c(cc1Cl)C(CCCCCN1CCCCC1)(c1ccccc1F)C(=O)N2S(=O)(=O)c1ccc(OC(C)C)cc1 (centres unmarked) (as salt: HCl)
28 | 206 °C | COc1cc2c(cc1Cl)C(CCCN1CC[C@H](N)C1)(c1ccccc1F)C(=O)N2S(=O)(=O)c1ccc(OC(C)C)cc1 (stereo partly drawn) (as salt: HCl) [Compound No. 5, 3-{3-[(3S)-3-aminopyrrolidin-1-yl]propyl}-5-chloro-3-(2-fluorophenyl)-1-[(4-isopropoxyphenyl)sulfonyl]-6-methoxy-1,3-dihydro-2H-indol-2-one]
29 | 147 °C | COc1cccc(S(=O)(=O)N2C(=O)C(CCCN3CCN(C)CC3)(c3ccccc3F)c3cc(Cl)c(OC)cc32)c1 (centres unmarked) (as salt: HCl) [Compound No. 38]
30 | 292 °C | COc1cc2c(cc1Cl)C(CCCN1CCNCC1)(c1ccccc1F)C(=O)N2S(=O)(=O)c1ccc(O)cc1 (centres unmarked) (as salt: HCl) [Compound No. 46]
31 | 192 °C | COc1cc2c(cc1Cl)C(CCCN1CCNCC1)(c1ccccc1F)C(=O)N2S(=O)(=O)c1ccc(C)c(C)c1 (centres unmarked) (as salt: HCl) [compound 20, 5-chloro-1-[(3,4-dimethylphenyl)sulfonyl]-3-(2-fluorophenyl)-6-methoxy-3-(3-(piperazin-1-yl)propyl)-1,3-dihydro-2H-indol-2-one]
32 | 213 °C | CCOc1ccc(S(=O)(=O)N2C(=O)C(CCCN3CCNCC3)(c3ccccc3F)c3cc(Cl)c(OC)cc32)cc1 (centres unmarked) (as salt: HCl) [compound 22, 5-chloro-1-[(4-ethoxyphenyl)sulfonyl]-3-(2-fluorophenyl)-6-methoxy-3-(3-(piperazin-1-yl)propyl)-1,3-dihydro-2H-indol-2-one]
